# Measured values published in patent publication US20020040005A1, “Composition and method of treating cancer” (priority 1995, published 2002).
# Key:
# HeLa cells = conditions: cited from earlier work; for cell growth: in vitro, dose dependently
# Raji lymphoma cells = conditions: cited from earlier work; for cell growth: in vitro, dose dependently
# [1] = test system: 12-O-tetradecanoyl-phorbol-13-acetate (TPA) effects in mouse epidermis; conditions: applied topically to mouse skin; cited from earlier work
# [2] = test system: skin tumors promoted by TPA; conditions: two-step initiation-promotion protocol; cited from earlier work
# Prostate Carcinoma = assay: Clinical experimental trials in Cuba, voluntary patients: prostate carcinoma; type: in vivo, human; conditions: 10% tannic acid
# From the text: (§1) The following clinical data was collected on voluntary patients during clinical experimental trials in Cuba. A 10% concentration of tannic acid was used in all of the clinical studies set forth below.
# Breast carcinoma = assay: Clinical experimental trials in Cuba, voluntary patients: breast carcinoma; type: in vivo, human; conditions: for clinical outcome: terminal
# From the text: as §1
# Colon Carcinoma = assay: Clinical experimental trials in Cuba, voluntary patients: colon carcinoma; type: in vivo, human
# From the text: as §1
# Carcinoma of the uterus = assay: Clinical experimental trials in Cuba, voluntary patients: carcinoma of the uterus; type: in vivo, human; conditions: for clinical outcome: one year
# From the text: as §1
# [3] = test system: Acute Lymphocytic Leukemia; assay: Clinical experimental trials in Cuba, voluntary patients: acute lymphocytic leukemia; type: in vivo, human; conditions: for time to relapse after completion of therapy: leukemia cells encysted in the testes
# From the text: as §1
# [4] = test system: Cancerous Lesion of the Tongue; assay: Clinical experimental trials in Cuba, voluntary patients: cancerous lesion of the tongue; type: in vivo, human; conditions: Patient #10, conventional treatment ineffective; 3 months at stage 1 dosage
# From the text: as §1
# Carcinoma of penis = assay: Clinical experimental trials in Cuba, voluntary patients: carcinoma of penis; type: in vivo, human; conditions: Patient #11, metastasized, terminal; maximum levels after surgery, one year
# From the text: as §1
# Hodgkin's Lymphoma = assay: Clinical experimental trials in Cuba, voluntary patients: Hodgkin's lymphoma; type: in vivo, human; conditions: Patient #14, chemotherapy discontinued, considered terminal; one year
# From the text: as §1
# Monoblastic Leukemia = assay: Clinical experimental trials in Cuba, voluntary patients: monoblastic leukemia; type: in vivo, human; conditions: Patient #17, no improvement with chemotherapy; maximum levels, one year
# From the text: as §1
# [5] = test system: Liposarcoma of the right thigh; assay: Clinical experimental trials in Cuba, voluntary patients: liposarcoma; type: in vivo, human; conditions: Patient #18, two unsuccessful operations; maximum levels, one year
# From the text: as §1
# Multiple Myelomas = assay: Clinical experimental trials in Cuba, voluntary patients: multiple myelomas; type: in vivo, human
# From the text: as §1
# [6] = test system: Hypernephroma (Cancer of Kidney); assay: Clinical experimental trials in Cuba, voluntary patients: hypernephroma; type: in vivo, human
# From the text: as §1
# Carcinoma of the Bladder = assay: Clinical experimental trials in Cuba, voluntary patients: carcinoma of the bladder; type: in vivo, human
# From the text: as §1
# [7] = test system: epidermal PAH metabolism, PAH-induced skin tumorigenesis; conditions: applied topically to Sencar mice; cited from earlier work
structure (smiles),measurement,setting,value
O=C(/C=C/c1ccc(O)c(O)c1)c1ccc(O)cc1O [Butein],growth inhibition,"HeLa cells; 10 microM, cell line not stated, more effective on HeLa cells",30%
"CC1=C(/C=C/C(C)=C/C=C/C(C)=C/CO)C(C)(C)CCC1 [Retinol, reference compound]",cell proliferation,"HeLa cells; 100 microM, HeLa",inhibited cell proliferation completely
same,cell proliferation,Raji lymphoma cells; 100 microM,inhibited cell proliferation completely
"O=c1oc2c(O)c(O)cc3c(=O)oc4c(O)c(O)cc1c4c23 [ellagic acid, reference compound]",TPA-induced DNA synthesis,[1],inhibited
same,TPA-induced hydroperoxide production,[1],inhibited
same,TPA-induced ornithine decarboxylase activity,[1],inhibited
same,incidence and yield of skin tumors promoted by TPA,[2],inhibited
"O=C(O)c1cc(O)c(O)c(O)c1 [gallic acid, reference compound]",cell growth,HeLa cells; HeLa,inhibited
same,cell growth,Raji lymphoma cells,inhibited
O=C(OC[C@H]1O[C@@H](OC(=O)c2cc(O)c(O)c(OC(=O)c3cc(O)c(O)c(O)c3)c2)[C@H](OC(=O)c2cc(O)c(O)c(OC(=O)c3cc(O)c(O)c(O)c3)c2)[C@@H](OC(=O)c2cc(O)c(O)c(OC(=O)c3cc(O)c(O)c(O)c3)c2)[C@@H]1OC(=O)c1cc(O)c(O)c(OC(=O)c2cc(O)c(O)c(O)c2)c1)c1cc(O)c(O)c(OC(=O)c2cc(O)c(O)c(O)c2)c1 [tannic acid],clinical outcome,"Prostate Carcinoma; Patient #1, inoperative, maximum dosage, first treatment period three months",Cancer was cured
same,catheter removal,"Prostate Carcinoma; Patient #1, two weeks after initiation of therapy",catheter was removed
same,clinical outcome (metastatic growth after surgery),"Breast carcinoma; Patient #2, after surgery on left breast, minimal 3 month period, 10% tannic acid",No additional cancerous growths were detected anywhere in their body
same,tumor size,"Breast carcinoma; Patient #3, tumor 5 cms by 5 cms, no surgery, maximum levels, after first three month interval, 10% tannic acid",Tumor diminished in size after first three month interval to the point where it was very difficult to detect by manual examination
same,long-term outcome,"Breast carcinoma; Patient #3, therapy continued for one year",Cancer never returned to this day
same,clinical outcome,"Breast carcinoma; Patient #6, metastasis in skeletal system, lungs and liver, maximum therapy, one year",they were cured of cancer in all organs
same,clinical outcome at end of therapy,"Breast carcinoma; Patient #15, left mammary gland removed, one year",no cancer was detected
same,clinical outcome,"Breast carcinoma; Patient #16, metastasis in both lungs and lymph nodes, maximum levels, one and one half year",the Doctor declared patient cured
same,regular checkups,"Colon Carcinoma; Patient #4, maximum therapy along with chemotherapy",all have been negative
same,blood work,"Colon Carcinoma; Patient #4, maximum therapy simultaneously with 72 chemotherapy dosages",normal
same,clinical outcome,"Colon Carcinoma; Patient #9, tumor not removed, no chemotherapy or radiation, maximum level, one year",Tumor disappeared and has not returned
same,clinical outcome,"Carcinoma of the uterus; Patient #5, metastatic growth throughout internal organs, terminal, maximum levels",They were cured of the cancer throughout their body
same,clinical outcome,"Carcinoma of the uterus; Patient #7, refused further radiation, maximum dosage, no other treatments",Semi-annual checkups reveal no relapse
same,outcome of readministered therapy,"Carcinoma of the uterus; Patient #15, carcinoma of the uterus discovered two years after first therapy, readministered one year",They were cured of uterine cancer
same,outcome of first therapy period,"[3]; Patient #8, terminal, one year at maximum dosage",Patient initially showed signs of being cured
same,time to relapse after completion of therapy,[3]; Patient #8,two
same,outcome of readministered therapy,"[3]; Patient #8, year long treatment period after relapse",patient was cured
same,time to relapse after completion of therapy,[3]; Patient #12,about 2 years
same,outcome of first therapy period,"[3]; Patient #12, maximum level, one year",Patient initially showed signs of being cured
same,outcome of readministered therapy,"[3]; Patient #12, readministered for one year after relapse",Patient was cured and subsequent check-ups have been negative
same,overall bloodwork,"[3]; Patient #13, no improvement with prior chemotherapy",immediately overall bloodwork returned to normal parameters
same,clinical outcome,[4],The lesion healed and the tissue of the tongue was restored to normal
same,clinical outcome,Carcinoma of penis,They have had no relapse and is cured of the cancer
same,clinical outcome,Hodgkin's Lymphoma,they were cured of disease
same,clinical outcome,Monoblastic Leukemia,They were cured of monoblastic Leukemia and has had no relapse
same,clinical outcome,[5],"They were cured of cancer, and has had no relapse"
same,X-rays at the end of the therapy,"Multiple Myelomas; Patient #19, metastasis in hips and ribs, maximum levels, three month period, no other therapy",actual regeneration of skeletal tissue and structure
same,time to death of Myeloma after stopping treatment,"Multiple Myelomas; Patient #19, refused treatment after three months",four
same,skeletal finding,"[6]; Patient #20, metastasis in lungs and ribs, terminal, maximum levels, after 20 days of therapy",regeneration of ribs had occurred
same,functional status,"[6]; Patient #20, after one month of therapy",the patient had returned to normal daily activities
same,survival after therapy,"[6]; Patient #20, therapy discontinued at three months",two
same,carcinoma size by cystoscopic exam,"Carcinoma of the Bladder; Patient #21, refused surgery, maximum dosage, first three month check-up",the carcinoma had diminished in size
same,clinical outcome,"Carcinoma of the Bladder; Patient #21, at 10 months",declared cured of cancer
same,TPA-induced DNA synthesis,[1],inhibited
same,TPA-induced hydroperoxide production,[1],inhibited
same,TPA-induced ornithine decarboxylase activity,[1],inhibited
same,incidence and yield of skin tumors promoted by TPA,[2],inhibited
same,cell growth,HeLa cells; HeLa,inhibited
same,potency relative to gallic acid,HeLa cells; HeLa,twice as potent as its monomer gallic acid
same,potency relative to gallic acid,Raji lymphoma cells,twice as potent as its monomer gallic acid
same,cell growth,Raji lymphoma cells,inhibited
same,PAH-DNA adduct formation,[7],substantial inhibition
same,PAH-induced skin tumorigenesis,[7],substantial inhibition
same,epidermal PAH metabolism,[7],substantial inhibition
